Reference: ChEMBL document CHEMBL1129882, “Beta-amino acid derivatives as orally active non-peptide fibrinogen receptor antagonists” (Bioorg Med Chem Lett, 1997)

Key:
[1] = test system: Cavia porcellus; test: Ex vivo platelet aggregation of compound was measured in guinea pig up to 5 hr after intraduodenal dose of 3 mg/kg; type: functional
[2] = test system: Cavia porcellus; test: Ex vivo platelet aggregation of compound was measured in guinea pig up to 5 hr after intraduodenal dose of 1 mg/kg; type: functional
[3] = target: T1, Integrin alpha-IIb/beta-3 (Homo sapiens, UniProt P05106+P08514); test: Inhibition of fibrinogen binding to immobilized human glycoprotein alpha IIb beta-3 integrin; type: protein-complex assay
[4] = organism: Homo sapiens; test: Tested in vitro for the inhibition of ADP-induced aggregation of human blood platelets; type: functional
[5] = test system: Cavia porcellus; test: Ex vivo platelet aggregation of compound was measured in guinea pig up to 5 hr after intraduodenal dose of 0.3 mg/kg; type: functional
[6] = test system: Cavia porcellus; test: Ex vivo platelet aggregation of compound was measured in guinea pig up to 5 hr after intraduodenal dose of 10 mg/kg; type: functional
[7] = target: T1, Integrin alpha-IIb/beta-3; test: Inhibition of fibrinogen binding to GPllb/IIIa receptor; type: protein-complex assay

T1 sequence (P05106 27-788 limits assumed): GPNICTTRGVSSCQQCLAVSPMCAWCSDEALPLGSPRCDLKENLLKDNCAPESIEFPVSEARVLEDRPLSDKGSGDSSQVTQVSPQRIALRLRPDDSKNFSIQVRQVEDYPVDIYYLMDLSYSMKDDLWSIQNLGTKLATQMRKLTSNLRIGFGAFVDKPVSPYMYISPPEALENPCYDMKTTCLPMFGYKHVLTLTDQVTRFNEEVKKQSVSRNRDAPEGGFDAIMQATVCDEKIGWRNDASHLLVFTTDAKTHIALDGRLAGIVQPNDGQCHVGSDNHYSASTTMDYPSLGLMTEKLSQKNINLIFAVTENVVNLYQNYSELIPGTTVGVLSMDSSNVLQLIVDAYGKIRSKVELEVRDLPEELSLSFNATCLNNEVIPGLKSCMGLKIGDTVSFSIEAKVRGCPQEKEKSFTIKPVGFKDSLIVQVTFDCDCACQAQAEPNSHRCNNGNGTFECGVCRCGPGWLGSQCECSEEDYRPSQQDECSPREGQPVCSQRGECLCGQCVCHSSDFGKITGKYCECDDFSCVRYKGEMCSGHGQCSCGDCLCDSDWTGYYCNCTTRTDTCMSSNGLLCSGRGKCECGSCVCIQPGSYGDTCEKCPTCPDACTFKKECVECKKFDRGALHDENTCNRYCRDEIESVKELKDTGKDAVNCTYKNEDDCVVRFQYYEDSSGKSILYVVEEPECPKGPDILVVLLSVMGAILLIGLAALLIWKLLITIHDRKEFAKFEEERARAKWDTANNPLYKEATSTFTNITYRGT
T1 sequence (P08514 32-887 limits assumed): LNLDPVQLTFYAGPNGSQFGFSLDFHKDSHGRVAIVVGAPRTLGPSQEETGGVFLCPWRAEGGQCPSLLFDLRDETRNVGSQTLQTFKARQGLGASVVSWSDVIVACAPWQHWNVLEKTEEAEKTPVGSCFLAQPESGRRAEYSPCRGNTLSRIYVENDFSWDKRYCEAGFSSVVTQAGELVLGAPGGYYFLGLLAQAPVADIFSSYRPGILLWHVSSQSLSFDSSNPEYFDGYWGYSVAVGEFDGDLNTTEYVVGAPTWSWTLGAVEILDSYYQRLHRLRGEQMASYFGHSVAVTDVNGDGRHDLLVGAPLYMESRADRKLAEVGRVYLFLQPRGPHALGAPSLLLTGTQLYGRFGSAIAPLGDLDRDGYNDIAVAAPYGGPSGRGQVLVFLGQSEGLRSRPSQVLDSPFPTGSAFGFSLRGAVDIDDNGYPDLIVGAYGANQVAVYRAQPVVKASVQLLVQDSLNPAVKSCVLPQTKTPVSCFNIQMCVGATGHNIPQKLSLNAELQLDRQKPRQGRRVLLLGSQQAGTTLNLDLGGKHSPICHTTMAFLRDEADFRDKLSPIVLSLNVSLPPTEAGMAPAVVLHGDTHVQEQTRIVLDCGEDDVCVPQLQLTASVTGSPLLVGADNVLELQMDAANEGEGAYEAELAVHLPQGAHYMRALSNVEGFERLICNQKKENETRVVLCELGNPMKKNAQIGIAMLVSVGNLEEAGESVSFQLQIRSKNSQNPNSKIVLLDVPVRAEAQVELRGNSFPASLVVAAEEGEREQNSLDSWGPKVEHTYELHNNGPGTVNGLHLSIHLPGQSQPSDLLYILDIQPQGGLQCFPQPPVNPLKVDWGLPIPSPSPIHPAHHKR
T1 sequence (P08514 891-1039 limits assumed): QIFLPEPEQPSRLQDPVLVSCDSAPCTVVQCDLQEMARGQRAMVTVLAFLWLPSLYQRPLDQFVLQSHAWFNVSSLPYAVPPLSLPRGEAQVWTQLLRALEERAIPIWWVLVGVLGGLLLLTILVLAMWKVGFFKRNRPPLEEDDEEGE

| Compound | IC50 [3] [nM] | IC50 [4] [nM] | IC50 [7] [µM] | inhibition in vivo at 3 mg/kg [1] [%] | inhibition in vivo at 1 mg/kg [2] [%] | inhibition in vivo at 0.3 mg/kg [5] [%] | inhibition in vivo at 10 mg/kg [6] [%] |
| --- | --- | --- | --- | --- | --- | --- | --- |
| CC(C)CNC(=O)[C@@H](CCCNC(=O)Cc1ccc(C(=N)N)cc1)CC(=O)O | 7.9 | 950 |  |  |  |  |  |
| CC(C)CC(=O)N[C@@H](CCCNC(=O)Cc1ccc(C(=N)N)cc1)CC(=O)O |  | 100 |  | 75 | 25 |  |  |
| Cc1ccc(S(=O)(=O)N[C@@H](CCCNC(=O)Cc2ccc(C(=N)N)cc2)CC(=O)O)cc1 |  | 640 |  |  |  |  | 10 |
| Cc1ccc(S(=O)(=O)N[C@@H](CCCNC(=O)Cc2ccc(C(=N)N)cc2)C(=O)O)cc1 | 48000 | 31000 |  |  |  |  |  |
| Cc1ccc(S(=O)(=O)N[C@@H](CCCNC(=O)OCc2ccccc2)C(=O)O)cc1 [ORNITHINE SULFONAMIDE] |  |  | 20 |  |  |  |  |

The remaining compounds from weak to strong by IC50 [4], led by results:

| IC50 [3] [nM] | IC50 [4] [nM] | IC50 [7] [µM] | Compound | inhibition in vivo at 3 mg/kg [1] [%] | inhibition in vivo at 1 mg/kg [2] [%] | inhibition in vivo at 0.3 mg/kg [5] [%] | inhibition in vivo at 10 mg/kg [6] [%] |
| --- | --- | --- | --- | --- | --- | --- | --- |
| 1 | 79 |  | COc1ccc(CCS(=O)(=O)N[C@H](CCCCNC(=O)c2ccc(C(=N)N)cc2)CC(=O)O)cc1 |  |  |  |  |
| 2.2 | 67 |  | N=C(N)c1ccc(CC(=O)NCCC[C@@H](CC(=O)O)NC(=O)CC23C[C@H]4C[C@@H](C2)C[C@@H](C3)C4)cc1 |  |  |  |  |
| 0.37 | 61 |  | N=C(N)c1ccc(CC(=O)NCCC[C@@H](CC(=O)O)NC(=O)CCC23C[C@H]4C[C@@H](C2)C[C@@H](C3)C4)cc1 | 10 |  |  |  |
| 1.1 | 31 |  | COc1ccc(CCC(=O)N[C@@H](CCCNC(=O)Cc2ccc(C(=N)N)cc2)CC(=O)O)cc1 | 10 | 10 |  |  |
| 0.36 | 18 |  | COc1ccc(CCC(=O)N[C@H](CCCCNC(=O)c2ccc(C(=N)N)cc2)CC(=O)O)cc1 |  | 90 | 45 |  |
| 0.36 | 18 |  | N=C(N)c1ccc(C(=O)NCCCC[C@H](CC(=O)O)NC(=O)Cc2cccc3ccccc23)cc1 |  | 40 |  |  |
| 0.54 | 15 |  | CC(C)CC(=O)N[C@H](CCCCNC(=O)c1ccc(C(=N)N)cc1)CC(=O)O | 75 | 65 |  |  |
